According to publication PMC10562900 (RSC Advances, 2023):

What was measured:
[1] = system: MCF-7; settings: read-out: IC50 (cell viability); cited from earlier work
[2] = target: T1, h-e5′NT (Homo sapiens, UniProt P21589); assay: CD73; assay type: biochemical; settings: for inhibition at 100 µM: read-out: inhibition% h-e5′NT
T1 sequence (P21589 27-574): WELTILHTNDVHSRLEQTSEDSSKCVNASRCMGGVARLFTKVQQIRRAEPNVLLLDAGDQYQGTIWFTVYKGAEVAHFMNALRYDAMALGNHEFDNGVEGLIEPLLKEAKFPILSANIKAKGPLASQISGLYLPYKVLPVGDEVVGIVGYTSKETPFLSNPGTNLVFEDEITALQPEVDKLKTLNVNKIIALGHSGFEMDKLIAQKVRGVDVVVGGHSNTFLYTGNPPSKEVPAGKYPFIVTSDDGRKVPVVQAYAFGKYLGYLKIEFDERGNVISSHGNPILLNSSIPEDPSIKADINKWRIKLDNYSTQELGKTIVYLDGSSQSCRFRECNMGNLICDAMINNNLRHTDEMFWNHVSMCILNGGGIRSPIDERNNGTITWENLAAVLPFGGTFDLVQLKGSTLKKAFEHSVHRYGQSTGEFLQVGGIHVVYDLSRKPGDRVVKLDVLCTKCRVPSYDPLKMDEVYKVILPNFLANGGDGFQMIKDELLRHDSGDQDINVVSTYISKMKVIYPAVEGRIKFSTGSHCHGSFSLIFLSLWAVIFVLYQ

[3] = target: T2, h-TNAP (Homo sapiens, UniProt P05186); assay: h-TNAP inhibition assay; assay type: biochemical; settings: for inhibition at 100 µM: read-out: inhibition% h-TNAP
T2 sequence (P05186 18-524): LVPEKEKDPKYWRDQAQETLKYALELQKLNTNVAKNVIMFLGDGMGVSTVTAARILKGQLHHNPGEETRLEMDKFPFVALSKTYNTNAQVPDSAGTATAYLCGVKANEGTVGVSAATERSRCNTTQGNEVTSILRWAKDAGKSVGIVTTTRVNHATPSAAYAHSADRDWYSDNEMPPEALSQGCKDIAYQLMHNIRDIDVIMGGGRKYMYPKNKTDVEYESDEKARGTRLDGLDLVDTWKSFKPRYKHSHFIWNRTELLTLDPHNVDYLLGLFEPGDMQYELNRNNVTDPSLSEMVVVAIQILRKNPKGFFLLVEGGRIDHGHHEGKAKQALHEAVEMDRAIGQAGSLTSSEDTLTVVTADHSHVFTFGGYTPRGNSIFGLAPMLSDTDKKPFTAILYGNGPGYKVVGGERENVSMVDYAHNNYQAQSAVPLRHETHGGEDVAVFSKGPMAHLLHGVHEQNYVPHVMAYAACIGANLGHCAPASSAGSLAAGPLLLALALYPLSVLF

[4] = target: T3, r-e5′NT (Rattus norvegicus, UniProt P21588); assay: CD73; assay type: biochemical; settings: for inhibition at 100 µM: read-out: inhibition% r-e5′NT
T3 sequence (P21588 29-576): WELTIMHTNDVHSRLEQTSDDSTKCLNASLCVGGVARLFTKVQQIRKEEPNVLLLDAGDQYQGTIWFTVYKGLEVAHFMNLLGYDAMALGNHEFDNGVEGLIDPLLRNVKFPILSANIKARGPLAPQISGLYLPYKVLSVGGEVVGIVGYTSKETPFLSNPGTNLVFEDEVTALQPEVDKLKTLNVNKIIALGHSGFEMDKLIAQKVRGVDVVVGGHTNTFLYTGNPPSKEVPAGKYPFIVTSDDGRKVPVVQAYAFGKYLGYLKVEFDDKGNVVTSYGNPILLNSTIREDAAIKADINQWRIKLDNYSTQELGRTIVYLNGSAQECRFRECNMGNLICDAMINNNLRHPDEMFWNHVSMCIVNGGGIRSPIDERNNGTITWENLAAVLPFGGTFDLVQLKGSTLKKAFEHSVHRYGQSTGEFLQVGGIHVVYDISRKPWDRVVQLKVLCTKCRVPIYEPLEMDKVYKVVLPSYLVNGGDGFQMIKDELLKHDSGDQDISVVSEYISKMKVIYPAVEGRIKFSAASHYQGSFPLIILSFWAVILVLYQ

[5] = target: T1, h-e5′NT; assay: Enzyme kinetic studies, h-e5′NT; assay type: biochemical; settings: Lineweaver–Burk
[6] = target: T3, r-e5′NT; assay: Enzyme kinetic studies, r-e5′NT; assay type: biochemical; settings: Lineweaver–Burk
[7] = target: T4, h-ENPP3 (Homo sapiens, UniProt O14638); assay: h-ENPP3 inhibition assay; assay type: biochemical; settings: for selectivity for h-ENPP3 between the two h-ENPP isozymes: h-ENPP3 versus h-ENPP1
T4 sequence (O14638 1-875): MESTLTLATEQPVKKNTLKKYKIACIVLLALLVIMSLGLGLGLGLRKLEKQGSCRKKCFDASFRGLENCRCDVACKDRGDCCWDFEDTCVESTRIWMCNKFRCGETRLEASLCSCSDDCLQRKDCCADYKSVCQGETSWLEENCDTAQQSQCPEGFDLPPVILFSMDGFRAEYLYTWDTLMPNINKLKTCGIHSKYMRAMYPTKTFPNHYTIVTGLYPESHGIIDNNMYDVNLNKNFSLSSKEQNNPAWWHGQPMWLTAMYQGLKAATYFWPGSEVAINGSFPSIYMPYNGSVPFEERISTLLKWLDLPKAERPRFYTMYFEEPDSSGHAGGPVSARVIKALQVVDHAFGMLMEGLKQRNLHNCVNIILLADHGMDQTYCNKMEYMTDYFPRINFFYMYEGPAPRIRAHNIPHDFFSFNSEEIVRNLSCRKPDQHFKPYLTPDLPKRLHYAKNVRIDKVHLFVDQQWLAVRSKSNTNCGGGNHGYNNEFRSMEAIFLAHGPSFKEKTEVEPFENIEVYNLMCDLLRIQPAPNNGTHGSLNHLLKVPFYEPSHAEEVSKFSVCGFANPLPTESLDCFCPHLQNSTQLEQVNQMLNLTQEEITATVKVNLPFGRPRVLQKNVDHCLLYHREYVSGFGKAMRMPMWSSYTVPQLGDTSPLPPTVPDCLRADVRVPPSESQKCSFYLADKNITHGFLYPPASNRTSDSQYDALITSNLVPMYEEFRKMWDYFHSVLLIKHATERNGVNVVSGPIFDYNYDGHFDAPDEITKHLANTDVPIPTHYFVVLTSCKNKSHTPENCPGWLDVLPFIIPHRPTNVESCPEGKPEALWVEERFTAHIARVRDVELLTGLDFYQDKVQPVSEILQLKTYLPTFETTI

[8] = target: T5, h-ENPP1 (Homo sapiens, UniProt P22413); assay: h-ENPP1 inhibition assay; assay type: biochemical; settings: read-out: inhibition% h-ENPP1
T5 sequence (P22413 1-925): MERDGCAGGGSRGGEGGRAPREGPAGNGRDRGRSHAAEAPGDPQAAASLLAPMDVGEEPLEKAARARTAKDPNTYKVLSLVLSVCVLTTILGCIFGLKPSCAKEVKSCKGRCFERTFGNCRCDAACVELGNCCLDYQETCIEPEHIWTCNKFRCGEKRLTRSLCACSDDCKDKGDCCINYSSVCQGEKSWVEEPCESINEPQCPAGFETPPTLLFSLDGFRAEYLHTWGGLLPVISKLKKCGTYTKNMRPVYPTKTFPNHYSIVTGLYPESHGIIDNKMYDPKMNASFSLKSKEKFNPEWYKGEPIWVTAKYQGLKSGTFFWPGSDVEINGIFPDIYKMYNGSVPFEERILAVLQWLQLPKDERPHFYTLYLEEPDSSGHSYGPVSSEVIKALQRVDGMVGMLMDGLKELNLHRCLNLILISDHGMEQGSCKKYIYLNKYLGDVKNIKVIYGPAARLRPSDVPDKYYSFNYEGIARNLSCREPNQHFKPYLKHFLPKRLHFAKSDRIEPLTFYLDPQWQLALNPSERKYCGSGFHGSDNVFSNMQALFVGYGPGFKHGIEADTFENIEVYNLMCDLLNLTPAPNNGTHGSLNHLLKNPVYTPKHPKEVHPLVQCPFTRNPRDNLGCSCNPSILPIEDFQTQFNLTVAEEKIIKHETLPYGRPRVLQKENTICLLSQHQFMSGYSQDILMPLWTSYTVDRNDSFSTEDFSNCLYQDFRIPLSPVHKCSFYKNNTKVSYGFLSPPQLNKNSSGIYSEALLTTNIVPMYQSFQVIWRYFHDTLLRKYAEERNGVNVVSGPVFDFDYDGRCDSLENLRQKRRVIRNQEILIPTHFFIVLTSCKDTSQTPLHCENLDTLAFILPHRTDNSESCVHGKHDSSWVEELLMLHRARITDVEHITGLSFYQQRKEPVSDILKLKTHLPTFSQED

Row | IC50 [2] | IC50 [3] | inhibition at 100 µM [4] | IC50 [4] | Compound | also measured
1 | 370 ± 30 nM | 1480 ± 20 nM |  | 1660 ± 40 nM | O=C(Cc1c[nH]c2ccccc12)Nc1ccccc1OS(=O)(=O)c1ccc(F)cc1 [5c, 2-(2-(1H-indol-3-yl)acetamido)phenyl 4-fluorobenzenesulfonate] | Mode of inhibition h-e5′NT [5]: un-competitive
2 | 3460 ± 120 nM | 5180 ± 460 nM |  | 1770 ± 120 nM | COc1ccc(S(=O)(=O)Oc2ccccc2NC(=O)Cc2c[nH]c3ccccc23)cc1 [5d, 2-(2-(1H-indol-3-yl)acetamido)phenyl 4-methoxy-benzenesulfonate] | 
3 | 560 ± 16 nM | 1060 ± 30 nM |  | 980 ± 20 nM | O=C(Cc1c[nH]c2ccccc12)Nc1ccccc1OS(=O)(=O)c1ccc(-c2ccccc2)cc1 [5e, 2-(2-(1H-indol-3-yl)acetamido)phenyl [1,1′-biphenyl]-4-sulfonate] | 
4 | 690 ± 1 nM | 6580 ± 250 nM |  | 1640 ± 20 nM | O=C(Cc1c[nH]c2ccccc12)Nc1ccccc1OS(=O)(=O)c1ccc(Br)cc1 [5f, 2-(2-(1H-indol-3-yl)acetamido)phenyl 4-bromobenzenesulfonate] | 
5 | 4850 ± 550 nM | 2270 ± 240 nM |  | 810 ± 50 nM | O=C(Cc1c[nH]c2ccccc12)Nc1ccccc1OS(=O)(=O)c1ccc(I)cc1 [5i, 2-(2-(1H-indol-3-yl)acetamido)phenyl 4-iodobenzenesulfonate] | Mode of inhibition r-e5′NT [6]: competitive
6 | 430 ± 30 nM | 1690 ± 180 nM |  | 5670 ± 110 nM | O=C(Cc1c[nH]c2ccccc12)Nc1ccccc1OS(=O)(=O)c1ccc(Cl)cc1 [5l, 2-(2-(1H-indol-3-yl)acetamido)phenyl 4-chlorobenzenesulfonate] | 
7 |  |  | 46.6% |  | O=C(Cc1c[nH]c2ccccc12)Nc1ccccc1OS(=O)(=O)c1cccs1 [5n, 2-(2-(1H-indol-3-yl)acetamido)phenyl thiophene-2-sulfonate] | IC50 [7]: 2550 ± 70 nM; selectivity for h-ENPP3 between the two h-ENPP isozymes [7]: more effective and selective for h-ENPP3; inhibition at 100 µM [2]: 44.7%; inhibition at 100 µM [8]: 38%; inhibition at 100 µM [3]: 28.9%
8 | 3210 ± 830 nM | 3370 ± 50 nM |  | 4860 ± 40 nM | Cc1ccc(S(=O)(=O)Oc2ccccc2NC(=O)Cc2c[nH]c3ccccc23)cc1 [5o, 2-(2-(1H-indol-3-yl)acetamido)phenyl 4-methylbenzenesulfonate] | IC50 [7]: 2670 ± 460 nM; selectivity for h-ENPP3 between the two h-ENPP isozymes [7]: more effective and selective for h-ENPP3; inhibition at 100 µM [8]: 28.3%

More lines, now with the values behind:

Row | Compound | IC50 [2] | IC50 [3] | inhibition at 100 µM [4] | IC50 [4] | also measured
9 | COc1cccc(OS(=O)(=O)c2ccc(C)cc2)c1 [3-methoxyphenyl p-toluenesulfonate] |  |  |  |  | IC50 [1]: 89.8 µM
10 | O=C(Cc1c[nH]c2ccccc12)Nc1ccccc1OS(=O)(=O)c1ccccc1Cl [5a, 2-(2-(1H-indol-3-yl)acetamido)phenyl 2-chlorobenzenesulfonate] | 1190 ± 20 nM | 1600 ± 110 nM | 22.7% |  | 
11 | O=C(Cc1c[nH]c2ccccc12)Nc1ccccc1OS(=O)(=O)Cc1ccccc1 [5b, 2-(2-(1H-indol-3-yl)acetamido)phenyl phenylmethanesulfonate] | 13200 ± 3140 nM |  | 38.5% |  | inhibition at 100 µM [3]: 42.4%
12 | Cc1ccc(S(=O)(=O)Oc2ccccc2NC(=O)Cc2c[nH]c3ccccc23)cc1Cl [5g, 2-(2-(1H-indol-3-yl)acetamido)phenyl 3-chloro-4-methylbenzenesulfonate] | 4410 ± 190 nM | 590 ± 80 nM |  | 1850 ± 110 nM | 
13 | O=C(Cc1c[nH]c2ccccc12)Nc1ccccc1OS(=O)(=O)C(F)(F)F [5j, 2-(2-(1H-indol-3-yl)acetamido)phenyl trifluoromethanesulfonate] | 890 ± 40 nM | 1680 ± 70 nM |  | 5120 ± 610 nM | 
14 | CC(C)S(=O)(=O)Oc1ccccc1NC(=O)Cc1c[nH]c2ccccc12 [5k, 2-(2-(1H-indol-3-yl)acetamido)phenyl propane-2-sulfonate] |  |  | 28.6% |  | inhibition at 100 µM [2]: 37.5%; inhibition at 100 µM [3]: 31.8%
15 | O=C(Cc1c[nH]c2ccccc12)Nc1ccccc1OS(=O)(=O)c1cccc2cccnc12 [5m, 2-(2-(1H-indol-3-yl)acetamido)phenyl quinoline-8-sulfonate] | 6530 ± 670 nM | 1300 ± 380 nM | 30% |  | 
16 | COc1ccc(OS(=O)(=O)c2ccc(C)cc2)cc1 [p-methoxyphenyl p-toluenesulfonate] |  |  |  |  | IC50 [1]: 126 µM
